Test results taken from publication PMC9783868, “Indoline-5-Sulfonamides: A Role of the Core in Inhibition of Cancer-Related Carbonic Anhydrases, Antiproliferative Activity and Circumventing of Multidrug Resistance” (Pharmaceuticals, 2022).
Where two headings read alike, the source gives them in different places.

How the values were obtained:
[1] = test system: MCF7 cells; test: Antiproliferative activity, MTT test; format: cell-based; details: Homo sapiens, MTT assay after 72 h exposure
Experimental: A series of synthesized indoline-5-sulfonamides was tested on the MCF7 cancer cell line under normoxia and hypoxia using the MTT test.
The MDR subline K562/4 [77] (kind gift of Dr. Alexander Shtil, Blokhin N.N. National Medical Research Center of Oncology) was obtained by stepwise selection of K562 cells for survival under continuous exposure to Dox. This subline expresses the MDR1 gene and functional P-gp and is characterized by a high resistance index for Dox. […] Cells in the logarithmic phase of growth were used in the experiments. The growth inhibitory activity of compounds was assessed by the MTT test based on the metabolism of the MTT reagent (3-[4,5-dimethylthiazol-2-yl]-2,5-diphenyltetrazolium bromide) (Applichem) in living cells, with modifications as described previously in [49]. Compounds at different concentrations in 100 μL of the appropriate medium were added, and the cells were grown for 72 h. The hypoxia (1% O2) conditions were simulated in Binder multigas incubator, as described in [49]. After incubation with compounds, the medium was removed, the MTT reagent that was dissolved in the medium was added to the final concentration of 0.2 mg/mL to each well, and the incubation was performed for 2 h. Then the cell supernatants were removed, and purple formazan crystals were dissolved in 100% DMSO (350 μL per well). Culture plates were gently shaken, and the absorbance was measured at 571 nm with a reference wavelength of 630 nm on a MultiScan reader (ThermoFisher, Waltham, MA, USA). The viability of the cells was expressed as a percentage of the control. Dose-response curves were analyzed by regression analysis using sigmoid curves (Log(concentration) vs. normalized absorbance).
All results were reported as means ± SD. One-way analysis of variance was used for the analysis of data. Differences were defined as significant at p < 0.05. GraphPad Prism7 (GraphPad Software, San Diego, CA, USA) was used for the determination of the half-maximal inhibitory concentration (IC50) values.

[2] = molecular target: T1, hCA XII (Homo sapiens, UniProt O43570); test: CA inhibition, stopped-flow CO2 hydration assay; format: biochemical; details: stopped-flow technique; mean from three assays
T1 construct: made in house
T1 sequence (O43570 25-354): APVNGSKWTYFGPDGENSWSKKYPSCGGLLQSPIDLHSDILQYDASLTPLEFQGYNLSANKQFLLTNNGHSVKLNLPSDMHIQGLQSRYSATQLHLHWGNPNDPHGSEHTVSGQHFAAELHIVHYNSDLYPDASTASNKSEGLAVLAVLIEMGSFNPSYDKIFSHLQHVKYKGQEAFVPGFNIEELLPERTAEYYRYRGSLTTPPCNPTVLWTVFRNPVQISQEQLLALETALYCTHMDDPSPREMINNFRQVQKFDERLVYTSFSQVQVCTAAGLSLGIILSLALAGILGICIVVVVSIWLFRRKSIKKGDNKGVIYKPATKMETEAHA
Experimental: (§1) The CO2 hydration activity of the four hCA isoforms was monitored using an Applied Photophysics stopped-flow instrument. Phenol red (at a concentration of 0.2 mM) was used as an indicator, working at the absorbance maximum of 557 nm, with 10 mM HEPES (pH 7.4) as a buffer, and 20 mM NaClO4 (for maintaining constant the ionic strength), following the initial rates of the CA-catalyzed CO2 hydration reaction for a period of 10–100 s. To determine the kinetic parameters by Lineweaver-Burk plots and the inhibition constants, a concentration of CO2 between 1.7 to 17 mM was used. At least six measurements of the original 5–10% reaction were used to assess the initial velocity for each inhibitor. The uncatalyzed rates were determined and detracted from the total observed rates. Stock inhibitor solutions (10–100 mM) were prepared in distilled-deionized water, and dilutions up to 0.1 nM were done with the buffer test. […] The inhibition constants were obtained by non-linear least-squares methods using PRISM 6 and the Cheng-Prusoff equation, as reported earlier, and represent the mean from at least three different determinations.

[3] = molecular target: T2, hCA I (Homo sapiens, UniProt P00915); test: CA inhibition, stopped-flow CO2 hydration assay; format: biochemical; details: stopped-flow technique; mean from three assays
T2 construct: made in house
T2 sequence (P00915 whole entry): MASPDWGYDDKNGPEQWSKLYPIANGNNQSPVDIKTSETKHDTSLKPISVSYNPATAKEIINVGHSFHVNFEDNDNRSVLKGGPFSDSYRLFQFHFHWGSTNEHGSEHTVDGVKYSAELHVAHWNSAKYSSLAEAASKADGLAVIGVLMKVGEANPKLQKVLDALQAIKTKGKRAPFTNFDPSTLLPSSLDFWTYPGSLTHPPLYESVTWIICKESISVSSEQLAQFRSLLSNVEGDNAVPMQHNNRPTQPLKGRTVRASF
Experimental: as §1

[4] = molecular target: T3, hCA IX (Homo sapiens, UniProt Q16790); test: CA inhibition, stopped-flow CO2 hydration assay; format: biochemical; details: stopped-flow technique; mean from three assays
T3 construct: made in house
Experimental: as §1

[5] = molecular target: T4, hCA II (Homo sapiens, UniProt P00918); test: CA inhibition, stopped-flow CO2 hydration assay; format: biochemical; details: stopped-flow technique; mean from three assays
T4 construct: made in house
Experimental: as §1

[6] = hypoxia (1% O2), read-out: IC50 against MCF7 Cells, Hypoxia
[7] = normoxia, read-out: IC50 against MCF7 Cells, Normoxia

| SMILES | IC50 [1, 6] [nM] | IC50 [1, 7] [nM] | Ki [2] [nM] | Ki [3] [nM] | Ki [4] [nM] | Ki [5] [nM] | melting point [°C] |
| --- | --- | --- | --- | --- | --- | --- | --- |
| NS(=O)(=O)c1ccc2c(c1)CCC2NC(=O)c1c(F)c(F)c(F)c(F)c1F (centres unmarked) [Compound 3, reference compound] | > 50000 | > 50000 | – | – | – | – | – |
| NS(=O)(=O)c1ccc2c(c1)CCN2C(=O)c1ccccc1 [Compound 4a, 1-Benzoylindoline-5-sulfonamide] | 36900 ± 3500 | > 50000 | 258 | 79 | > 10000 | 5.4 | > 250 |
| NS(=O)(=O)c1ccc2c(c1)CCN2C(=O)c1ccc(F)cc1 [Compound 4c, 1-(4-Fluorobenzoyl)indoline-5-sulfonamide] | 32700 ± 2800 | 40600 ± 3800 | > 10000 | 88.3 | 2250 | 9.5 | > 250 |
| NS(=O)(=O)c1ccc2c(c1)CCN2C(=O)c1c(F)cccc1F [Compound 4d, 1-(2,6-Difluorobenzoyl)indoline-5-sulfonamide] | 35900 ± 3400 | > 50000 | 41.3 | 268 | 1330 | 9.1 | 244 to 246 |
| NS(=O)(=O)c1ccc2c(c1)CCN2C(=O)c1ccc(Cl)cc1 [Compound 4g, 1-(4-Chlorobenzoyl)indoline-5-sulfonamide] | 24200 ± 2100 | 36500 ± 3300 | 57 | 242 | > 10000 | 66.2 | > 250 |
| NS(=O)(=O)c1ccc2c(c1)CCN2C(=O)c1ccc(Cl)c(Cl)c1 [Compound 4h, 1-(3,4-Dichlorobenzoyl)indoline-5-sulfonamide] | 48700 ± 4500 | 35200 ± 3500 | 56 | 350 | > 10000 | 54 | > 250 |
| Cc1cccc(C(=O)N2CCc3cc(S(N)(=O)=O)ccc32)c1 [Compound 4i, 1-(3-Methylbenzoyl)indoline-5-sulfonamide] | 43600 ± 4000 | > 50000 | 93.9 | 220 | > 10000 | 36.1 | 247 to 249 |
| COc1cccc(C(=O)N2CCc3cc(S(N)(=O)=O)ccc32)c1 [Compound 4j, 1-(3-Methoxybenzoyl)indoline-5-sulfonamide] | > 50000 | 46200 ± 3600 | 110 | 67.7 | > 10000 | 9.2 | 225 to 227 |
| COc1ccc(C(=O)N2CCc3cc(S(N)(=O)=O)ccc32)cc1 [Compound 4k, 1-(4-Methoxybenzoyl)indoline-5-sulfonamide] | > 50000 | > 50000 | > 10000 | 77.7 | 173 | 9.3 | 240 to 242 |

More lines, now with the values ahead:

| IC50 [1, 6] [nM] | IC50 [1, 7] [nM] | Ki [2] [nM] | Ki [3] [nM] | Ki [4] [nM] | Ki [5] [nM] | melting point [°C] | SMILES |
| --- | --- | --- | --- | --- | --- | --- | --- |
| > 50000 | 37000 ± 3000 | 113 | 71.5 | 203 | 4 | 249 to 251 | COc1ccc(C(=O)N2CCc3cc(S(N)(=O)=O)ccc32)c(OC)c1 [Compound 4l, 1-(2,4-Dimethoxybenzoyl)indoline-5-sulfonamide] |
| > 50000 | 18400 ± 1600 | 91 | 71.4 | 1990 | 9.3 | 245 to 247 | CSc1ccc(C(=O)N2CCc3cc(S(N)(=O)=O)ccc32)cc1 [Compound 4n, 1-(4-(Methylthio)benzoyl)indoline-5-sulfonamide] |
| 39500 ± 3400 | 43700 ± 3700 | 120 | 83.4 | > 10000 | 4.5 | 238 to 240 | NS(=O)(=O)c1ccc2c(c1)CCN2C(=O)c1ccccc1[N+](=O)[O-] [Compound 4o, 1-(2-Nitrobenzoyl)indoline-5-sulfonamide] |
| 39900 ± 3500 | 48800 ± 4400 | 198 | 60.5 | 2110 | 42.2 | 247 to 249 | NS(=O)(=O)c1ccc2c(c1)CCN2C(=O)c1ccc([N+](=O)[O-])cc1 [Compound 4p, 1-(4-Nitrobenzoyl)indoline-5-sulfonamide] |
| > 50000 | > 50000 | > 10000 | 64 | 2390 | 12.5 | > 250 | NS(=O)(=O)c1ccc2c(c1)CCN2C(=O)c1ccncc1 [Compound 4q, 1-Isonicotinoylindoline-5-sulfonamide] |
| 39100 ± 3900 | 47700 ± 3800 | 147 | 42.2 | 177 | 5 | > 250 | NS(=O)(=O)c1ccc2c(c1)CCN2C(=O)c1cccs1 [Compound 4r, 1-(Thiophene-2-carbonyl)indoline-5-sulfonamide] |
| > 50000 | > 50000 | 88.1 | 60.9 | 133 | 7.1 | 233 to 235 | NS(=O)(=O)c1ccc2c(c1)CCN2C(=O)C1CCCC1 [Compound 4s, 1-(Cyclopentanecarbonyl)indoline-5-sulfonamide] |
| 36000 ± 3300 | 38000 ± 3500 | > 10000 | 51.6 | 177 | 3.5 | 184 to 186 | NS(=O)(=O)c1ccc2c(c1)CCN2C(=O)CC1CCCC1 [Compound 4t, 1-(2-Cyclopentylacetyl)indoline-5-sulfonamide] |
| 39200 ± 3400 | 37100 ± 3500 | > 10000 | 67 | 223 | 1.8 | > 250 | NS(=O)(=O)c1ccc2c(c1)CCN2C(=O)C1CCCCC1 [Compound 4u, 1-(Cyclohexanecarbonyl)indoline-5-sulfonamide] |
| 34800 ± 3200 | 23600 ± 2000 | > 10000 | 41 | > 10000 | 3 | 144 to 146 | NS(=O)(=O)c1ccc2c(c1)CCN2Cc1ccccc1 [Compound 10, 1-Benzylindoline-5-sulfonamide] |
